Assay results: patent US9549895B2, “Methods and compositions for preserving the viability of photoreceptor cells” (Massachusetts Eye and Ear Infirmary, priority 2004, dated 2017)
Values joined by “and” are separate entries in the source; they are usually repeats but may differ in a detail not shown here. Equal values may be shown once.

Columns and labels:
[1] = test system: photoreceptor cell death (TUNEL-positive response in the ONL); experiment: TUNEL analysis 72 hours after retinal detachment with subretinal TNF-alpha suppressing agents; assay type: in vivo, rat; conditions: subretinal 5 μl, 2 mg/mL, FIG. 12
Description: Retinal detachments were created only in the right eye of each animal, and the left eye served as a control. Following retinal detachment, various treatments were administered subretinally using a Hamilton syringe equipped with a 32-gauge needle. The tip of needle was introduced through a sclerotomy and retinal hole into the subretinal space, and 5 μl of solution, either normal goat serum (0.1 mg/mL), goat anti-TNF-alpha antibody (0.1 mg/mL), or etanercept (2 mg/mL), was injected over 3 minutes. Seventy-two hours after retinal detachment, the eyes were subjected to TUNEL analysis.

[2] = test system: photoreceptor cell death (TUNEL-positive cells in the ONL); experiment: TUNEL staining 24 hours after retinal detachment with subretinal administration of cytokines; assay type: in vivo, rat; conditions: subretinal 5 μl of 0.1 μg/μl, PBS control 15.3±5.4, n=7
Description: Retinal detachment was induced by subretinal injection of sodium hyaluronate. Retinal tissues were collected at various time points (1, 3, 6, 24, 72 hours) after inducing retinal detachment. Neural retina was homogenized, and mRNA expression was quantified by QPCR. To identify the cellular sources of expressed genes, samples from various retinal layers were obtained using LCM. Immunohistochemistry and Enzyme Linked-Immuno-Sorbent Assay (ELISA) were performed to show expressional changes of proteins. TUNEL staining was used in order to assess photoreceptor death induced by retinal detachment with or without subretinal administration of cytokines.
Fifty-five adult male Brown Norway rats (200-300 g, Charles River, Boston, Mass.) were used in this study. Rats were anesthetized with a 1:1 mixture of ketamine (100 mg/mL) and xylazine (20 mg/mL; both from Phoenix Pharmaceutical, St. Joseph, Mo.). Pupils were dilated with a topically applied mixture of phenylephrine (5.0%) and tropicamide (0.8%; Massachusetts Eye and Ear Infirmary internal formulary preparation). A sclerotomy was created approximately 2 mm posterior to the limbus with a 22-gauge needle. Care was taken not to damage the lens during creation of the sclerotomy. A Glaser subretinal injector (20-gauge shaft with a 32-gauge tip, BD Biosciences, San Jose, Calif.) connected to a syringe filled with 10 mg/mL Healon® sodium hyaluronate (Pharmacia and Upjohn Co., Kalamazoo, Mich.) was then introduced into the vitreous cavity. […]
Subretinal administration of select cytokines was performed following the creation of retinal detachment. […] TUNEL-positive cells were counted in a masked fashion, and standard error was determined.
To investigate effects of cytokines on photoreceptor cell death induced by retinal detachment, TUNEL staining was performed 24 hours after retinal detachment with subretinal administration of PBS, TNF-alpha (0.1 μg/μl), IL-1 beta (0.1 μg/μl), or MCP-1 (0.1 μg/μl). […] In the control condition with PBS, TUNEL-positive cells were detected in the ONL 24 hours after retinal detachment (15.3±5.4 cells/field, n=7). […]

caspase 1 = target: T1, caspase 1 (Homo sapiens, UniProt P29466); conditions: cited from earlier work
T1 sequence (P29466 120-297 limits assumed): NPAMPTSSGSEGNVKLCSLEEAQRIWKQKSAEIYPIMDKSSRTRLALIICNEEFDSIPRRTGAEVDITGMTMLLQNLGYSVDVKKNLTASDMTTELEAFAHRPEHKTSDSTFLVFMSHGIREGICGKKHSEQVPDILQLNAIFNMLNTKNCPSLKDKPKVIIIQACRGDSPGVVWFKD
T1 sequence (P29466 317-404 limits assumed): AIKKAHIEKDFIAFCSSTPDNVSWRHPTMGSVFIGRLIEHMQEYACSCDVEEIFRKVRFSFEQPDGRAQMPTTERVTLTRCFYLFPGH

caspase 7 = target: T2, caspase 7 (Homo sapiens, UniProt P55210); conditions: cited from earlier work
T2 sequence (P55210 24-198 limits assumed): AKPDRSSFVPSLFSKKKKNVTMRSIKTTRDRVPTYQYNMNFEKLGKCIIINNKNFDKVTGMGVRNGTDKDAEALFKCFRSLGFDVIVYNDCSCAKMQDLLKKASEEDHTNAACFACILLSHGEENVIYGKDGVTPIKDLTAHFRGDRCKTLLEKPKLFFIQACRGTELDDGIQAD
T2 sequence (P55210 207-303 limits assumed): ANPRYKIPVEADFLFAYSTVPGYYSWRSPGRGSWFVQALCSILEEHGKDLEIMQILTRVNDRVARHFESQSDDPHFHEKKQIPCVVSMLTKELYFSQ

caspase 4 = target: T3, caspase 4 (Homo sapiens, UniProt P49662); conditions: cited from earlier work
T3 sequence (P49662 81-270 limits assumed): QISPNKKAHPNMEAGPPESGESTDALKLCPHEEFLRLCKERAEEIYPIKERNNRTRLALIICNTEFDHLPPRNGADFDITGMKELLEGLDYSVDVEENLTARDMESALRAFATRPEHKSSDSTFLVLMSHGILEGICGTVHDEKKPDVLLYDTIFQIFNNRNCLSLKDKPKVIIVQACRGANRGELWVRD
T3 sequence (P49662 290-377 limits assumed): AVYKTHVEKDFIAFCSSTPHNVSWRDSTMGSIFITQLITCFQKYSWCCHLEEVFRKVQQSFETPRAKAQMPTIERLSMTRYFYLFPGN

caspase 3 = target: T4, caspase 3 (Homo sapiens, UniProt P42574); conditions: cited from earlier work
T4 sequence (P42574 29-175 limits assumed): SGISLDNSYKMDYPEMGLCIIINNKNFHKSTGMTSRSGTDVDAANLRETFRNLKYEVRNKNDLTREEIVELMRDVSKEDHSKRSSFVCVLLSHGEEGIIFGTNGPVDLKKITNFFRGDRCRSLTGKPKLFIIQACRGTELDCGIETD
T4 sequence (P42574 176-277 limits assumed): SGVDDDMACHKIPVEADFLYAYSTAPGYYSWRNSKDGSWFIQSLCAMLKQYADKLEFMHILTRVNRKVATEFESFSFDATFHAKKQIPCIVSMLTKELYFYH

[3] = test system: photoreceptor cell death (TUNEL-positive cells); experiment: TUNEL staining 72 hours after retinal detachment with intravitreal or subretinal PEDF; assay type: in vivo, rat; conditions: for difference in number of TUNEL-positive cells, intravitreally-injected control eyes versus intravitreally-injected PEDF eyes: intravitreal; for Number of TUNEL-Positive Cells, Mean: 72 hours
Description: In these experiments, retinal detachments were created in Brown Norway rats by injecting […] into the subretinal space using a transvitreous approach. Treatment with PEDF (BioProducts MD, Middletown, Md.) or control vehicle was administered immediately after detachment. In an initial set of experiments, the treatment groups included: intravitreal administration of 2.5 μg PEDF (n=6); intravitreal administration of 5.0 μg PEDF (n=9); subretinal administration of 2.5 μg PEDF (n=6); subretinal administration of 5.0 μg PEDF (n=9); intravitreal administration of control vehicle (n=3); and subretinal administration of control vehicle (n=3). In a second set of experiments, the treatment groups included: intravitreal administration of 5.0 μg PEDF (n=15); subretinal administration of 5.0 μg PEDF (n=15); intravitreal administration of control vehicle (n=9); and subretinal administration of control vehicle (n=9).
(§1) For both sets of experiments, all eyes were enucleated 72 hours after retinal detachment and embedded in paraffin. Four micron sections through the area of detachment, including the optic nerve, were obtained. Light microscopy was performed at 3× and at 32× magnification using hematoxylin-eosin staining. TUNEL staining was performed using a commercial kit (Oncogene, San Diego, Calif.) and viewed at 20× magnification using green fluorescein staining for TUNEL and blue DAPI nuclear staining. TUNEL-positive cells were counted per millimeter of tissue by a masked observer. The mean number of TUNEL-positive cells per millimeter of tissue was determined by averaging the number of TUNEL-positive cells per mm of tissue in three sections of each eye. Additionally, a realtime polymerase chain reaction (PCR) was performed for a variety of cytokines, including bFGF, TNF-alpha, and IL-1 beta, on extracted retina from normal eyes (n=6), untreated eyes with retinal detachment (n=6), PEDF-treated eyes with retinal detachment (n=6) and PBS-treated eyes with retinal detachment (n=6).

[4] = test system: mRNA levels of bFGF, TNF-alpha, IL-1 beta; experiment: Realtime PCR of cytokine mRNA in detached retina after intravitreal PEDF; assay type: in vivo, rat; conditions: 5.0 μg intravitreal injection just after detachment versus PBS control; FIG. 16
Description: as §1
A realtime PCR was performed for a variety of cytokines, including bFGF, PEDF, TNF-alpha, IL-1 beta, HGF, CNTF, TGF beta, and IGF 1. The amount of each mRNA from each of six eyes treated with a 5.0 μg intravitreal injection of PEDF just after detachment was averaged. […]

## etanercept
[1]
  TUNEL-positive response in the ONL as compared to controls: significantly decreased

## TNF-alpha
[2]
  number of TUNEL-positive cells in the ONL: did not change significantly

## MCP-1: rat recombinant MCP-1 administered subretinally
[2]
  number of TUNEL-positive cells in the ONL: 67.7±46.5 cells/field

## 2-Val-Ala-Asp-fluoromethylketone
Caspase 1
  caspase inhibition: inhibits
Caspase 7
  caspase inhibition: inhibits
Caspase 4
  caspase inhibition: inhibits
Caspase 3
  caspase inhibition: inhibits

## Ac-Tyr-Val-Ala-Asp-aldehyde
Caspase 1
  Ki: 10 nM
Caspase 7
  Ki: ≥ 50000 nM
Caspase 4
  Ki: 10 nM
Caspase 3
  Ki: ≥ 50000 nM

B1: PEDF: pigment epithelium-derived factor (BioProducts MD), neurotrophic factor (protein, UniProt P36955 20-418, looked up)
Pigment epithelium-derived …: QNPASPPEEGSPDPDSTGALVEEEDPFFKVPVNKLAAAVSNFGYDLYRVRSSTSPTTNVLLSPLSVATALSALSLGAEQRTESIIHRALYYDLISSPDIHGTYKELLDTVTAPQKNLKSASRIVFEKKLRIKSSFVAPLEKSYGTRPRVLTGNPRLDLQEINNWVQAQMKGKLARSTKEIPDEISILLLGVAHFKGQWVTKFDSRKTSLEDFYLDEERTVRVPMMSDPKAVLRYGLDSDLSCKIAQLPLTGSMSIIFFLPLKVTQNLTLIEESLTSEFIHDIDRELKTVQAVLTVPKLKLSYEGEVTKSLQEMKLQSLFDSPDFSKITGKPIKLTQVEHRAGFEWNEDGAGTTPSPGLQPAHLTFPLDYHLNQPFIFVLRDTDTGALLFIGKILDPRGP
[3]; initial set of experiments
  difference in number of TUNEL-positive cells, intravitreally-injected control eyes versus intravitreally-injected PEDF eyes: no statistically significant difference
[3]; initial set of experiments, intravitreal 2.5 μg, control 23.3
  Number of TUNEL-Positive Cells, Mean: 16.9 TUNEL-positive cells per millimeter of tissue
[3]; initial set of experiments, intravitreal 5.0 μg, control 23.3
  Number of TUNEL-Positive Cells, Mean: 28.4 TUNEL-positive cells per millimeter of tissue
[3]; initial set of experiments, subretinal 2.5 μg, control 63.8
  Number of TUNEL-Positive Cells, Mean: 17.6±15.5 TUNEL-positive cells per millimeter of tissue and 17.7 TUNEL-positive cells per millimeter of tissue
[3]; initial set of experiments, subretinal 5.0 μg, control 63.8
  Number of TUNEL-Positive Cells, Mean: 30.4±18.1 TUNEL-positive cells per millimeter of tissue and 30.4 TUNEL-positive cells per millimeter of tissue
[3]; larger sample set, either subretinally or intravitreally
  effect on photoreceptor cell death following retinal detachment as measured using TUNEL: no significant effect
[3]; second set of experiments
  difference in number of TUNEL-positive cells, intravitreally-injected control eyes versus intravitreally-injected PEDF eyes: no statistically significant difference
[3]; second set of experiments, intravitreal 5.0 μg, control 30.2
  Number of TUNEL-Positive Cells, Mean: 30.3 TUNEL-positive cells per millimeter of tissue
[4]
  effect on mRNA levels of bFGF, TNF-alpha, IL-1 beta, or any of the cytokines measured: does not significantly alter

B2: IL-1 beta: rat recombinant IL-1 beta administered subretinally (protein, UniProt Q63264 117-268, looked up)
Interleukin-1 beta: VPIRQLHCRLRDEQQKCLVLSDPCELKALHLNGQNISQQVVFSMSFVQGETSNDKIPVALGLKGLNLYLSCVMKDGTPTLQLESVDPKQYPKKKMEKRFVFNKIEVKTKVEFESAQFPNWYISTSQAEHRPVFLGNSNGRDIVDFTMEPVSS
[2]
  number of TUNEL-positive cells in the ONL: did not change significantly
